The values that follow come from doi:10.1101/2024.08.19.608619, “Discovery of potent SARS-CoV-2 nsp3 macrodomain inhibitors uncovers lack of translation to cellular antiviral response” (bioRxiv, 2024).

Like-named read-outs stand apart in the source and are kept apart here.

Common to all, as to assay: biochemical
Set-up in all cases: In vitro kinase panel profiling, per cent remaining kinase activity at 10 uM

One assay concerns the target CDK7/cyclinH/MAT1(h) (Homo sapiens, UniProt P50613). The note with it: atp_concentration=90, read-out: % of control remaining. An excerpt:
(§1) We derisk potential for off-target activity by profiling the compound in a CEREP panel, a standard secondary pharmacology assessment, as well as a kinase panel to derisk a potential hinge-binding motif in our leads, and a PARP panel to derisk activity against human […]. Reassuringly, the compounds are selective, with the only off-targets being moderate human CHRM2 and KOR receptors activity associated with ASAP-0011198.

The target in the next assay is T1, EphB4(h) (Homo sapiens, UniProt P54760).
T1 sequence (P54760 1-987): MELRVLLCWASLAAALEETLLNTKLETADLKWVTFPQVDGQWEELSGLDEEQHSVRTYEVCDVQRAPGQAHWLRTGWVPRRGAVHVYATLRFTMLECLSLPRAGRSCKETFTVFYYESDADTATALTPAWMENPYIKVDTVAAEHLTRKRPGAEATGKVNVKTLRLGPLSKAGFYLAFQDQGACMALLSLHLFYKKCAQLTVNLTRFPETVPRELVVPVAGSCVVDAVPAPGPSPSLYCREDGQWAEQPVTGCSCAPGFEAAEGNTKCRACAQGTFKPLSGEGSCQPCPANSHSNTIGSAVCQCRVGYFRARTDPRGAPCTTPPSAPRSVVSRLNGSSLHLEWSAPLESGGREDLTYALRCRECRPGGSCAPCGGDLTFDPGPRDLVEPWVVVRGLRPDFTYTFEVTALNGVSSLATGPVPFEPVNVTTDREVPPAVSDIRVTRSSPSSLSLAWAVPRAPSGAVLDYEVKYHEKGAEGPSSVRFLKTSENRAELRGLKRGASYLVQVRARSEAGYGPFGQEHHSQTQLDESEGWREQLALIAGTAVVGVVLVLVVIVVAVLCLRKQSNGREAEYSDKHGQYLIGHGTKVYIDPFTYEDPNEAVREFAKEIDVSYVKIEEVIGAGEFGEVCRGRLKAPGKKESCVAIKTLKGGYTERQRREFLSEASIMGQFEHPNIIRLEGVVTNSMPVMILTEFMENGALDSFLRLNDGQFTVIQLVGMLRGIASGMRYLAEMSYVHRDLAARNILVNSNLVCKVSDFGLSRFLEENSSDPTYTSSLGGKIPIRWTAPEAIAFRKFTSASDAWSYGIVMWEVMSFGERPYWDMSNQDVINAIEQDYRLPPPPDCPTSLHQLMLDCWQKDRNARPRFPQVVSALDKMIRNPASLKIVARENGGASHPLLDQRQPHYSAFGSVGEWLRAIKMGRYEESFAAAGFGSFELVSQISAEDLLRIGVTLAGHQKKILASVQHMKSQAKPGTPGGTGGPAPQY
The note with it: atp_concentration=10, read-out: % of control remaining.
Description: as §1

Another assay concerns the target T2, IRAK4(h) (Homo sapiens, UniProt Q9NWZ3).
T2 sequence (Q9NWZ3 1-460): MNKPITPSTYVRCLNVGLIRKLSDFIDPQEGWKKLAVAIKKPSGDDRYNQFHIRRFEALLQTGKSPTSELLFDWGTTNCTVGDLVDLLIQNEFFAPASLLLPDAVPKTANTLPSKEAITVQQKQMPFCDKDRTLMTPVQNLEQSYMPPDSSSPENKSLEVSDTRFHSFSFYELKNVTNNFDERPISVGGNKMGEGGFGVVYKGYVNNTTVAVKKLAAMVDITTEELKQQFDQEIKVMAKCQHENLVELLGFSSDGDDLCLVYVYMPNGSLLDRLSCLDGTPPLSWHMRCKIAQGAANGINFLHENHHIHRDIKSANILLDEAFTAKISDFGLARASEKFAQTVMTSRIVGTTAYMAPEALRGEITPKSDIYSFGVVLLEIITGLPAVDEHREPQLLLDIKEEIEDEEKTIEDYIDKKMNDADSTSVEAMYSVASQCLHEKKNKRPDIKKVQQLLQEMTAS
The note with it: atp_concentration=200, read-out: % of control remaining.
Description: as §1

The target in a further assay is T3, MEK1(h) (Homo sapiens, UniProt Q02750).
T3 construct: gene MAP2K1
The note with it: atp_concentration=10, read-out: % of control remaining.
Description: as §1

Another assay concerns the target T4, MSK2(h) (Homo sapiens, UniProt O75676).
T4 construct: gene RPS6KA4
Conditions: atp_concentration=45, read-out: % of control remaining.
Description: as §1

A further assay deals with T5, MST1(h) (Homo sapiens, UniProt Q13043).
T5 construct: gene STK4
T5 sequence (Q13043 1-487): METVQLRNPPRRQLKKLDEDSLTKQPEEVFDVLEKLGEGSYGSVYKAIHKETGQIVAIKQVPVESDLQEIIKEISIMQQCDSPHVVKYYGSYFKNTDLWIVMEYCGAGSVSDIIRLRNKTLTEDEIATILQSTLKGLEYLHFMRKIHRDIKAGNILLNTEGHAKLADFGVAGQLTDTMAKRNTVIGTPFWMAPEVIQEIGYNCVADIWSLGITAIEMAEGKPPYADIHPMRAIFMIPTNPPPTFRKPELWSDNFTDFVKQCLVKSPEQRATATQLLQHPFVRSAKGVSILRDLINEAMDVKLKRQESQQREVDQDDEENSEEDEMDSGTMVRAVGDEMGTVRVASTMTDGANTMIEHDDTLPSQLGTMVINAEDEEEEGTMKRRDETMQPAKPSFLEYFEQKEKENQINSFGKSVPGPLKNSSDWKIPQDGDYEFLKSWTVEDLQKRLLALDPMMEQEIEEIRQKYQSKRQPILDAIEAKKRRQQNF
The note with it: atp_concentration=90, read-out: % of control remaining.
Description: as §1

The target in the next assay is T6, PKA(h) (Homo sapiens, UniProt P17612).
T6 construct: gene PRKACA
Conditions: atp_concentration=10, read-out: % of control remaining.
Description: as §1

For the next assay, the target named is mTOR(h) (Homo sapiens, UniProt P42345). The note with it: atp_concentration=70, read-out: % of control remaining.
Description: as §1

T4 sequence (O75676 whole entry): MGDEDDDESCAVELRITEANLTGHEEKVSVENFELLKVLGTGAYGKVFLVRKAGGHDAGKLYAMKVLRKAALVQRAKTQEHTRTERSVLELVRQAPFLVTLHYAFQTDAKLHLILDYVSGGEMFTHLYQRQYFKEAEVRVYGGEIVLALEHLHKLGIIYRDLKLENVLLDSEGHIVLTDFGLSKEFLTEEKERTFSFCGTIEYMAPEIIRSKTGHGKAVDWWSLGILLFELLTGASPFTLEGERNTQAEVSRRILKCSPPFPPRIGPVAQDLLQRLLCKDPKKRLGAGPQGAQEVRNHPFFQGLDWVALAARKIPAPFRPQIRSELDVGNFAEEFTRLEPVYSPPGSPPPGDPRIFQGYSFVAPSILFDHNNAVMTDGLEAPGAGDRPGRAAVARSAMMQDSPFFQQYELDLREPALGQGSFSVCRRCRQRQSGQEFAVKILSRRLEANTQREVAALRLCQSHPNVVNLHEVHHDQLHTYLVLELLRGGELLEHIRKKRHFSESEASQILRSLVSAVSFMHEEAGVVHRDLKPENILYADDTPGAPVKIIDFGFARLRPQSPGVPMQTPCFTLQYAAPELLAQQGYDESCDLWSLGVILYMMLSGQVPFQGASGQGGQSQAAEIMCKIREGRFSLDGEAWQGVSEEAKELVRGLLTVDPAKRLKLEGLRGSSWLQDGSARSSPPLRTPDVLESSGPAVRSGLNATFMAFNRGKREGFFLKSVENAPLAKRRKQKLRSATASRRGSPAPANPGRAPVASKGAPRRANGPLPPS
Sequence of CDK7/cyclinH/MAT1(h) (P50613 whole entry): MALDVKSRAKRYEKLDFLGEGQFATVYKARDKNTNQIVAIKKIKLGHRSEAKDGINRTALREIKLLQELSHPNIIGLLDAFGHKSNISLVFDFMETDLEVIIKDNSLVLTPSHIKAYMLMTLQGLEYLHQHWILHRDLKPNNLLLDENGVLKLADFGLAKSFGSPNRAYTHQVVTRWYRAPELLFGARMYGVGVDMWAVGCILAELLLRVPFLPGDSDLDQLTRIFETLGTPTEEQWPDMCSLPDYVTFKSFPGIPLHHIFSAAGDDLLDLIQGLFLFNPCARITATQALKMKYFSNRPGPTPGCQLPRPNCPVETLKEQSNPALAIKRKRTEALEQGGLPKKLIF
Sequence of CDK7/cyclinH/MAT1(h) (P51946 whole entry partner): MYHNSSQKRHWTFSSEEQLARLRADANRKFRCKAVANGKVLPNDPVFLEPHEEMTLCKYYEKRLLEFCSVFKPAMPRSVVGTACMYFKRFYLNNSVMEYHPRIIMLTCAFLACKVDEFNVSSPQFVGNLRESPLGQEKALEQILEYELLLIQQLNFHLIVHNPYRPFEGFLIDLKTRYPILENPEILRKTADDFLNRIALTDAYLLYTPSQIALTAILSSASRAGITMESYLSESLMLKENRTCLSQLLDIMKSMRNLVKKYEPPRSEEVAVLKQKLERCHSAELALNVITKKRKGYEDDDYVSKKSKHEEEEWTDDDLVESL
Sequence of CDK7/cyclinH/MAT1(h) (P51948 whole entry partner): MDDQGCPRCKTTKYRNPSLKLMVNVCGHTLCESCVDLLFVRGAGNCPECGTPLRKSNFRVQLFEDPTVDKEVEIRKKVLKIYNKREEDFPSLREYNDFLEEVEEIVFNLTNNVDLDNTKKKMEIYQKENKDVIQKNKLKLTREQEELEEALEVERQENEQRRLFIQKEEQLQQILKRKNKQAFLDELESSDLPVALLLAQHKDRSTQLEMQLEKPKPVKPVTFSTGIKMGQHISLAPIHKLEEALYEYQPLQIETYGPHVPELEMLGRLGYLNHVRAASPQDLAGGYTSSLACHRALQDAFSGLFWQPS
T3 sequence (Q02750 whole entry): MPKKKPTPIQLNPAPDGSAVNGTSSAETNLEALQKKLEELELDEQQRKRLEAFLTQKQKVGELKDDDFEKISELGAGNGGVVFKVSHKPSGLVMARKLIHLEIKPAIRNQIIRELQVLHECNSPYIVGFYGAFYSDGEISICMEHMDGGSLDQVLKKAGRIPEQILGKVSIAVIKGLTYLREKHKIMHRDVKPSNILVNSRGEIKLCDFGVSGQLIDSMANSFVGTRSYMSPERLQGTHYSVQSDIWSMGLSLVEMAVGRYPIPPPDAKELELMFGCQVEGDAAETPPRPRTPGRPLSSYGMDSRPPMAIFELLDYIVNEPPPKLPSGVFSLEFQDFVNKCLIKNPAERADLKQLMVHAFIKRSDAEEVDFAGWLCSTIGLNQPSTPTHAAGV

For `CC(C)[C@@H](Nc1ncnc2[nH]c(-c3cnn(C)c3C#N)cc12)c1ccc2c(n1)OCCO2` [ASAP-0010716], the remaining activity at 10 µM amounted to 102% at CDK7/cyclinH/MAT1(h) (batch_name=ASAP-0010716-002); 91% at EphB4(h) (batch_name=ASAP-0010716-002); 99% on IRAK4(h) (batch_name=ASAP-0010716-002); 103% on MEK1(h) (batch_name=ASAP-0010716-002); 122% at MSK2(h) (batch_name=ASAP-0010716-002); 121% at MST1(h) (batch_name=ASAP-0010716-002). Besides, the remaining activity at 10 µM on PKA(h) (batch_name=ASAP-0010716-002) is 93%; at mTOR(h) (batch_name=ASAP-0010716-002) it was 102%.
As to `Cn1ncc(-c2cc3c(N[C@@H](c4ccc5c(n4)OCCO5)C(C)(C)C)ncnc3[nH]2)c1C#N` [ASAP-0011221], the remaining activity at 10 µM on CDK7/cyclinH/MAT1(h) (batch_name=ASAP-0011221-002) is 108%; at EphB4(h) (batch_name=ASAP-0011221-002), 115%; at IRAK4(h) (batch_name=ASAP-0011221-002) it was 132%; on MEK1(h) (batch_name=ASAP-0011221-002), 98%; on MSK2(h) (batch_name=ASAP-0011221-002) it was 122%; at MST1(h) (batch_name=ASAP-0011221-002), 115%. Further, the remaining activity at 10 µM was 95% at PKA(h) (batch_name=ASAP-0011221-002) and 105% on mTOR(h) (batch_name=ASAP-0011221-002).
In the case of `CC(C)C(Nc1ncnc2[nH]c(C(=O)NC3CCN(C)C3)cc12)c1ccc2c(c1)S(=O)(=O)CCC2` (centres unmarked) [ASAP-0011198], the remaining activity at 10 µM was found to be 101% on CDK7/cyclinH/MAT1(h) (batch_name=ASAP-0011198-002); 86% on EphB4(h) (batch_name=ASAP-0011198-002); 105% at IRAK4(h) (batch_name=ASAP-0011198-002); 107% at MEK1(h) (batch_name=ASAP-0011198-002); 93% at MSK2(h) (batch_name=ASAP-0011198-002); 122% at MST1(h) (batch_name=ASAP-0011198-002). For the same compound, the figures for the remaining activity at 10 µM at PKA(h) (batch_name=ASAP-0011198-002) and on mTOR(h) (batch_name=ASAP-0011198-002) were 89% and 103%, respectively.
With `CC(C)[C@H](Nc1ncnc2[nH]ccc12)c1ccc2c(c1)S(=O)(=O)CCC2` [ASAP-0008674], the remaining activity at 10 µM at CDK7/cyclinH/MAT1(h) (batch_name=ASAP-0008674-002) stood at 89%; at EphB4(h) (batch_name=ASAP-0008674-002), 86%; at IRAK4(h) (batch_name=ASAP-0008674-002), 112%; on MEK1(h) (batch_name=ASAP-0008674-002), 94%; at MSK2(h) (batch_name=ASAP-0008674-002), 92%; at MST1(h) (batch_name=ASAP-0008674-002), 126%. Also, the remaining activity at 10 µM at PKA(h) (batch_name=ASAP-0008674-002) was determined as 89%; at mTOR(h) (batch_name=ASAP-0008674-002), 99%.
For the compound `CC(C)[C@@H](Nc1ncnc2[nH]c(-c3cnn(C)c3C#N)cc12)c1ccc2c(n1)OCCO2` [ASAP-0008418], the remaining activity at 10 µM on CDK7/cyclinH/MAT1(h) (batch_name=ASAP-0008418-001) is 101%; on EphB4(h) (batch_name=ASAP-0008418-001), 75%; on IRAK4(h) (batch_name=ASAP-0008418-001), 100%; at MEK1(h) (batch_name=ASAP-0008418-001), 99%; at MSK2(h) (batch_name=ASAP-0008418-001) it was 103%; on MST1(h) (batch_name=ASAP-0008418-001), 103%. Besides, the figures for the remaining activity at 10 µM on PKA(h) (batch_name=ASAP-0008418-001) and at mTOR(h) (batch_name=ASAP-0008418-001) were 92% and 83%, respectively.
`COc1ccc([C@@H](Cc2nnn[nH]2)NC(=O)c2ncnc3[nH]ccc23)cc1` [ASAP-0008340]: the remaining activity at 10 µM on CDK7/cyclinH/MAT1(h) (batch_name=ASAP-0008340-001) worked out at 91%; on EphB4(h) (batch_name=ASAP-0008340-001) it was 88%; at IRAK4(h) (batch_name=ASAP-0008340-001), 91%; at MEK1(h) (batch_name=ASAP-0008340-001), 92%; on MSK2(h) (batch_name=ASAP-0008340-001), 92%; at MST1(h) (batch_name=ASAP-0008340-001), 98%. For the same compound, the remaining activity at 10 µM on PKA(h) (batch_name=ASAP-0008340-001) turned out to be 105%; on mTOR(h) (batch_name=ASAP-0008340-001), 95%.
Regarding `Cc1nn(C)cc1-c1cc2c(NC(c3ccc4c(c3)S(=O)(=O)CCC4)C(C)C)ncnc2[nH]1` (centres unmarked) [ASAP-0011446], the remaining activity at 10 µM came to 93% on CDK7/cyclinH/MAT1(h) (batch_name=ASAP-0011446-002); 98% on EphB4(h) (batch_name=ASAP-0011446-002); 107% on IRAK4(h) (batch_name=ASAP-0011446-002); 99% at MEK1(h) (batch_name=ASAP-0011446-002); 105% at MSK2(h) (batch_name=ASAP-0011446-002); 115% at MST1(h) (batch_name=ASAP-0011446-002). Moreover, the remaining activity at 10 µM on PKA(h) (batch_name=ASAP-0011446-002) stood at 95%; at mTOR(h) (batch_name=ASAP-0011446-002), 96%.
